For assay [1], the target named is dopaminergic receptors D2 (Homo sapiens, UniProt P14416). The experiment in a line: Radioligand binding assay, dopaminergic D2 receptors. To be noted: binding assay, test compound 1×10^−6 M. From the text: (§1) The specific ligand binding to the receptors is defined as the difference between the total binding and the non-specific binding determined in the presence of the excess of unlabelled ligand.
(§2) The results are expressed as a percent of control specific binding ((measured specific binding/control specific binding)×100) and as a percent inhibition of control specific binding (100−((measured specific binding/control specific binding)×100)) obtained in the presence of the test compounds. The specific ligand binding to the receptors is defined as the difference between the total binding and the nonspecific binding determined in the presence of an excess of unlabelled ligand. Scintillation counting was the method of detection of ligand binding. The IC50 values (concentration causing a half-maximal inhibition of control specific binding) were determined by non-linear regression analysis of the competition curves generated with mean replicate values using Hill equation curve fitting (Y=D+[(A−D)/(1+(C/C50)nH)], where Y=specific binding, D=minimum specific binding, A=maximum specific binding, C=compound concentration, C50=IC50, and nH=slope factor). This analysis was performed using a software developed at Cerep (Hill software) and validated by comparison with data generated by the commercial software SigmaPlot® 4.0 for Windows® (© 1997 by SPSS Inc.). The inhibition constants (Ki) were calculated using the Cheng Prusoff equation (Ki=IC50/(1+(L/KD)), where L=concentration of radioligand in the assay, and KD=affinity of the radioligand for the receptor). A scatchard plot was used to determine the Kd.
(§3) Experimental conditions for tests are given in Table 1, the results of tests for representative compounds are given in Tables 2a and 2b (receptors D2 and D3) and in Table 3 (receptors D4).

Another assay has as its target T1, 5-HT6 receptor (Homo sapiens, UniProt P50406).
T1 construct: purchased PerkinElmer
Description: Radioligand binding assay, serotoninergic 5-HT6 receptors.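 Also: test compound at 1 µM.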 To be noted: binding assay result in %, Table 5a.
Text: as §1, §2
(§4) Experimental conditions for tests are given in Table 4, and results of tests for representative compounds of the invention are given in Table 5a and 5b (receptors 5-HT1A, 5-HT2A, 5-HT6 and 5-HT7) and in Table 6 (receptors 5-HT2C).
5-HT6: Bryan L. Roth. Assay Protocol Book. University of North Carolina At Chapel Hill. National Institute of Mental Health. Psychoactive Drug Screening Program. Available on-line at 31 Aug. 2008: http://pdsp.med.unc.edu/UNC-CH %20Protocol%20Book.pdf

Assay [2] has as its target T2, 5-HT1A receptor (rat hippocampus) (Rattus norvegicus, UniProt P19327).
T2 construct: hippocampus; from tissue; host or cells: rat hippocampus
T2 sequence (P19327 1-422): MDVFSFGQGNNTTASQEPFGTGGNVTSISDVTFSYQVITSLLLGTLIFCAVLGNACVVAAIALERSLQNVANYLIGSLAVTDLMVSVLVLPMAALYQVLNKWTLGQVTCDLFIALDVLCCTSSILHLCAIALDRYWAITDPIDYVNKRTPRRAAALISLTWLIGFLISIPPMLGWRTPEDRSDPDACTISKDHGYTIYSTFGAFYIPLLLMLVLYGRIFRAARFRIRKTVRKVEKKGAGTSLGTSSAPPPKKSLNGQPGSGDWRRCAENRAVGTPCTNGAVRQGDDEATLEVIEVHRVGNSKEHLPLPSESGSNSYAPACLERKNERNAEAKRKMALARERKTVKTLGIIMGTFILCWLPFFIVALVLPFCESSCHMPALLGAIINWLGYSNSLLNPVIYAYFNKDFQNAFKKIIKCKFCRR
Description: Radioligand binding assay, serotoninergic 5-HT1A receptors.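 Also: test compound at 1 µM.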 As to conditions: binding assay result in %, Table 5a.
Text: as §1, §2, §4

For a further assay, the target named is T3, 5-HT7 receptor (Homo sapiens, UniProt P34969).
T3 construct: purchased PerkinElmer
Description: Radioligand binding assay, serotoninergic 5-HT7 receptors.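 Also: test compound at 1 µM.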 To be noted: binding assay result in %, Table 5a.
Text: as §1, §2, §4
5-HT7: Bryan L. Roth. Assay Protocol Book. University of North Carolina At Chapel Hill. National Institute of Mental Health. Psychoactive Drug Screening Program. Available on-line at 31 Aug. 2008: http://pdsp.med.unc.edu/UNC-CH %20Protocol%20Book.pdf

The target in assay [3] is T4, serotonin transporter (SERT) (Homo sapiens, UniProt P31645).
T4 construct: expressed in transfected cells; host or cells: CHO cells
Description: Radioligand binding assay, serotonin transporter (SERT). As to conditions: binding assay, test compound 1×10^−6 M.
Text: as §1, §2
Experimental conditions for tests are given in Table 12, and results of tests for representative compounds are given in Tables 13a and 13b.

A further assay addresses T5, 5-HT2A receptor (Homo sapiens, UniProt P28223).
T5 construct: purchased PerkinElmer
The experiment in a line: Radioligand binding assay, serotoninergic 5-HT2A receptors. To be noted: binding assay result in %, Table 5a.
Text: as §1, §2
5-HT2A: Bryan L. Roth. Assay Protocol Book. University of North Carolina At Chapel Hill. National Institute of Mental Health. Psychoactive Drug Screening Program. Available on-line at 31 Aug. 2008: http://pdsp.med.unc.edu/UNC-CH%20Protocol%20Book.pdf

The target in assay [4] is dopaminergic receptors D3 (Homo sapiens, UniProt P35462). Description: Radioligand binding assay, dopaminergic D3 receptors. As to conditions: test compound 1×10^−6 M.
Text: as §1, §2, §3

T3 sequence (P34969 whole entry): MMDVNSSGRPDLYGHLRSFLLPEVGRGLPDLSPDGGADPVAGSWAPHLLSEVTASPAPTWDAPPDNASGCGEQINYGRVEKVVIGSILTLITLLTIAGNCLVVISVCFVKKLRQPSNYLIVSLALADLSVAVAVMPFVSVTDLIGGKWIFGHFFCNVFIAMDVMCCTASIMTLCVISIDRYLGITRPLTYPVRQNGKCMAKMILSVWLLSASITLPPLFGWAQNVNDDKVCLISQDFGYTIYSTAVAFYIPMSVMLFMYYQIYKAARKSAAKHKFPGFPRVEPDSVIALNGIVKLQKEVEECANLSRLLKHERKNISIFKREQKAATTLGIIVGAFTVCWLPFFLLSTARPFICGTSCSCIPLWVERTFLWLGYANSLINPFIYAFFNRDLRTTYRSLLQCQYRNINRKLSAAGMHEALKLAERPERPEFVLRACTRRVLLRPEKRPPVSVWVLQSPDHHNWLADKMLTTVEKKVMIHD
Sequence of dopaminergic receptors D2 (P14416 whole entry): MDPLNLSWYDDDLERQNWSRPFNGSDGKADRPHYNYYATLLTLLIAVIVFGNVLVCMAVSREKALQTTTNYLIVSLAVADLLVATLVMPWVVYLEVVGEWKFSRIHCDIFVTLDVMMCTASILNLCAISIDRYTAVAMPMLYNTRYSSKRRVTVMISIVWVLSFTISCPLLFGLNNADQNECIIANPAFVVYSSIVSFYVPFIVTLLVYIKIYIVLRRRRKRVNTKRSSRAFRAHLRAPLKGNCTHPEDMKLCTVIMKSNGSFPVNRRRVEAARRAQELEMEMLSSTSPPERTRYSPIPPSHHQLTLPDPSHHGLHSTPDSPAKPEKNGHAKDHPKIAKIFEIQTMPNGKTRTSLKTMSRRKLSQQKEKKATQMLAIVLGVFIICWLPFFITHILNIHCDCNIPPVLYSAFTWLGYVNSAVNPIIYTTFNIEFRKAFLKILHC
T5 sequence (P28223 whole entry): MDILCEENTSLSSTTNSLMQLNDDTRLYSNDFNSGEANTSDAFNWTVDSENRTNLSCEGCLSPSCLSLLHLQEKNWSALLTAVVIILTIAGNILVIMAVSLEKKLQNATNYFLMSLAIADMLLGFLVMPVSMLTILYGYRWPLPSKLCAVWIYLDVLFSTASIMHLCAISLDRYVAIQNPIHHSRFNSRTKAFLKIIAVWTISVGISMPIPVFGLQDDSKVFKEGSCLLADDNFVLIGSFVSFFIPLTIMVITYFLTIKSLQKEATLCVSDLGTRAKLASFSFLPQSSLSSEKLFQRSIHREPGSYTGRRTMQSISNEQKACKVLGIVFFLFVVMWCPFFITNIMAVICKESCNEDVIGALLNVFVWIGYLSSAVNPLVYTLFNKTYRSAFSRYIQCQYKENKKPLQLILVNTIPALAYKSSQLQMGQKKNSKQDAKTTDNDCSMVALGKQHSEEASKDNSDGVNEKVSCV
T1 sequence (P50406 whole entry): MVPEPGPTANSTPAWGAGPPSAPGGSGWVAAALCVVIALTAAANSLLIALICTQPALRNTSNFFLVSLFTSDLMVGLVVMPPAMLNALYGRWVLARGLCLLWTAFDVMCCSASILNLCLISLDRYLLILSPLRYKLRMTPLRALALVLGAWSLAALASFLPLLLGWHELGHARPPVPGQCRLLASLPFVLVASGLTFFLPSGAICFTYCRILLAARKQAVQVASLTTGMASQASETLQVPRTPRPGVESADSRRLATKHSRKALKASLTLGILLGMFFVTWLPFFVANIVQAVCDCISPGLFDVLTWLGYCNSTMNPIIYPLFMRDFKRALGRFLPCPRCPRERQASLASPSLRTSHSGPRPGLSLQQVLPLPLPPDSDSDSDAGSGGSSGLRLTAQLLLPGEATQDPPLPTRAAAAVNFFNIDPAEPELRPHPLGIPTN
Sequence of dopaminergic receptors D3 (P35462 whole entry): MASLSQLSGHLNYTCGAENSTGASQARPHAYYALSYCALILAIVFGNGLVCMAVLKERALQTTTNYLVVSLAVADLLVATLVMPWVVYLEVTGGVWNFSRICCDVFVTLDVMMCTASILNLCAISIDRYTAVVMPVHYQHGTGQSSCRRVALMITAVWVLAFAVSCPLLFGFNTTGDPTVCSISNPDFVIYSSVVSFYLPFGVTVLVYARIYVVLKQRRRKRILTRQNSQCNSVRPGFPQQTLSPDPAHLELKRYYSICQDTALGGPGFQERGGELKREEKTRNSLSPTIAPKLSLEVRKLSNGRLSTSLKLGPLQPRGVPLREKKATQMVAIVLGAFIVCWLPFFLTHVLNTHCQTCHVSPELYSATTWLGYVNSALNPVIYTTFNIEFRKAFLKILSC
T4 sequence (P31645 whole entry): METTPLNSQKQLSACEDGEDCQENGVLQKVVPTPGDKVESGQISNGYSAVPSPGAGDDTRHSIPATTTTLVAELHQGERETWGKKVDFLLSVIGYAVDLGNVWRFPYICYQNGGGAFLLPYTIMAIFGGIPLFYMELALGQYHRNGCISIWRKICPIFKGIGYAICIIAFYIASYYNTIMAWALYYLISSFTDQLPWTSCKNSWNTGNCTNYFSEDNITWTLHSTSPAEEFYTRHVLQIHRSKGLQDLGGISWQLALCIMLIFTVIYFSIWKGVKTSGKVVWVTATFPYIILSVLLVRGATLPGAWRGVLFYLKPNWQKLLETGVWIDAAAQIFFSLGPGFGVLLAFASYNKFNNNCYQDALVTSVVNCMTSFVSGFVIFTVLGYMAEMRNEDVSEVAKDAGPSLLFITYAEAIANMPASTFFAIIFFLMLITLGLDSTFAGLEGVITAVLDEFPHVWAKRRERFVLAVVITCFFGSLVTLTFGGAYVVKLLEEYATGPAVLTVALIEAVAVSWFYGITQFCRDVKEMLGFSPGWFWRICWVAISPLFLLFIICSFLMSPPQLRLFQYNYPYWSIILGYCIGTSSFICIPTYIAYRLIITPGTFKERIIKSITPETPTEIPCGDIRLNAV

`O=S(=O)(NCC1CCN(CCCc2noc3cc(F)ccc23)C1)c1cccc(O)c1` (stereo not drawn) [Compound 254, N-[[1-[3-(6-Fluoro-1,2-benzoxazol-3-yl)propyl]pyrrolidin-3-yl]methyl]-3-hydroxy-benzenesulphonamide]: the inhibition at 1 µM was determined as 75% in assay [1]; 78% at 5-HT6 receptor; 49% in assay [2]; 102% at 5-HT7 receptor; 10% in assay [3]; 98% on 5-HT2A receptor. The inhibition at 1 µM in assay [4] worked out at 34%.
For `O=S(=O)(NCC1CCN(CCCc2noc3cc(F)ccc23)C1)c1ccc2c(c1)CCO2` (stereo not drawn) [Compound 256, N-[[1-[3-(6-Fluoro-1,2-benzoxazol-3-yl)propyl]pyrrolidin-3-yl]methyl]-2,3-dihydrobenzofuran-5-sulphonamide], the inhibition at 1 µM in assay [1] came out at 37%; at 5-HT6 receptor, 74%; in assay [2], 29%; at 5-HT7 receptor, 92%; in assay [3] it was 40%; on 5-HT2A receptor, 87%. In addition, the inhibition at 1 µM in assay [4] amounted to 25%.
`O=S(=O)(NCC1CCN(CCCc2noc3cc(F)ccc23)C1)c1cc2ccccc2o1` (stereo not drawn) [Compound 257, N-[[1-[3-(6-Fluoro-1,2-benzoxazol-3-yl)propyl]pyrrolidin-3-yl]methyl]-benzofuran-2-sulphonamide]: the inhibition at 1 µM is 92% in assay [1]; 94% on 5-HT6 receptor; 87% in assay [2]; 88% at 5-HT7 receptor; 20% in assay [3]; 100% at 5-HT2A receptor. Besides, the inhibition at 1 µM in assay [4] is 62%.
Take `Cn1ccc2c(S(=O)(=O)NCC3CCN(CCCc4noc5cc(F)ccc45)C3)cccc21` (stereo not drawn) [Compound 259, N-[[1-[3-(6-Fluoro-1,2-benzoxazol-3-yl)propyl]pyrrolidin-3-yl]methyl]-1-methyl-indole-4-sulphonamide]: the inhibition at 1 µM in assay [1] is 84%; on 5-HT6 receptor, 92%; in assay [2] it was 42%; at 5-HT7 receptor it was 91%; in assay [3], -5%; at 5-HT2A receptor it was 100%. In addition, the inhibition at 1 µM in assay [4] stood at 61%.
On to `O=S(=O)(NCC1CCN(CCCc2noc3cc(F)ccc23)C1)c1csc2ccccc12` (stereo not drawn) [Compound 261, N-[[1-[3-(6-Fluoro-1,2-benzoxazol-3-yl)propyl]pyrrolidin-3-yl]methyl]-benzothiophene-3-sulphonamide], for which the inhibition at 1 µM in assay [1] is 88%; at 5-HT6 receptor it was 97%; in assay [2], 78%; at 5-HT7 receptor it was 104%; in assay [3], 3%; at 5-HT2A receptor, 101%. In assay [4], the inhibition at 1 µM was 65%.
For the molecule `Cc1cc(S(=O)(=O)NCC2CCN(CCCc3noc4cc(F)ccc34)C2)c(C)s1` (stereo not drawn) [Compound 262, N-[[1-[3-(6-Fluoro-1,2-benzoxazol-3-yl)propyl]pyrrolidin-3-yl]methyl]-2,5-dimethyl-thiophene-3-sulphonamide], the inhibition at 1 µM in assay [1] was 26%; at 5-HT6 receptor it was 69%; in assay [2], 25%; on 5-HT7 receptor it was 92%; in assay [3], 26%; on 5-HT2A receptor, 85%. The inhibition at 1 µM in assay [4] came out at 44%.
As for `O=S(=O)(NCC1CCN(CCCc2noc3cc(F)ccc23)C1)c1ccc(F)c(Cl)c1` (stereo not drawn) [Compound 263, 3-Chloro-4-fluoro-N-[[1-[3-(6-fluoro-1,2-benzoxazol-3-yl)propyl]pyrrolidin-3-yl]methyl]benzenesulphonamide], the inhibition at 1 µM in assay [1] was 59%; at 5-HT6 receptor, 85%; in assay [2], 19%; at 5-HT7 receptor, 92%; in assay [3] it was 11%; at 5-HT2A receptor, 97%. The inhibition at 1 µM in assay [4] is 71%.
For `O=S(=O)(NC1CCN(CCCc2noc3cc(F)ccc23)CC1)c1cc2ccccc2s1` [Compound 324, N-[1-[3-(6-Fluoro-1,2-benzoxazol-3-yl)propyl]-4-piperidyl]benzothiophene-2-sulphonamide], the inhibition at 1 µM in assay [1] turned out to be 77%; at 5-HT6 receptor it was 78%; in assay [2], 49%; at 5-HT7 receptor, 101%; in assay [3], 18%; on 5-HT2A receptor it was 99%. Moreover, the inhibition at 1 µM in assay [4] was found to be 41%.
On to `CC(C)(C)c1ccc(S(=O)(=O)NC2CCN(CCCc3noc4cc(F)ccc34)CC2)cc1` [Compound 328, 4-tert-Butyl-N-[1-[3-(6-fluoro-1,2-benzoxazol-3-yl)propyl]-4-piperidyl]benzenesulphonamide], for which the inhibition at 1 µM in assay [1] was found to be 64%; at 5-HT6 receptor, 94%; in assay [2] it was 49%; at 5-HT7 receptor, 90%; in assay [3] it was 25%; on 5-HT2A receptor, 96%. Besides, in assay [4], the inhibition at 1 µM came to 40%.
`Cn1ccc2c(S(=O)(=O)NC3CCN(CCCc4noc5cc(F)ccc45)CC3)cccc21` [Compound 329, N-[1-[3-(6-Fluoro-1,2-benzoxazol-3-yl)propyl]-4-piperidyl]-1-methyl-indole-4-sulphonamide]: the inhibition at 1 µM in assay [1] stood at 84%; at 5-HT6 receptor, 62%; in assay [2], 49%; at 5-HT7 receptor, 97%; in assay [3] it was 43%; at 5-HT2A receptor, 94%. The inhibition at 1 µM in assay [4] was determined as 68%.
In the case of `O=S(=O)(NC1CCN(CCCc2noc3cc(F)ccc23)CC1)c1csc2ccccc12` [Compound 330, N-[1-[3-(6-Fluoro-1,2-benzoxazol-3-yl)propyl]-4-piperidyl]benzothiophene-3-sulphonamide], the inhibition at 1 µM stood at 77% in assay [1]; 79% at 5-HT6 receptor; 82% in assay [2]; 101% on 5-HT7 receptor; 22% in assay [3]; 102% on 5-HT2A receptor. In assay [4], the inhibition at 1 µM is 64%.
In the case of “N-[[1-[3-(6-Fluoro-1,2-benzoxazol-3-yl)propyl]pyrrolidin-3-yl]methyl]-1-methyl-indole-5-sulphonamide [Compound 258]”, the “D2 [%]” value in assay [1] was 92%. On 5-HT6 receptor, the “5-HT6 [%]” value is recorded as 89%. Besides, the “5-HT1A [%]” value in assay [2] was 64%. Also, the “5-HT7 [%]” value at 5-HT7 receptor stood at 78%. Besides, in assay [3], the “SERT [%]” value was determined as 25%. At 5-HT2A receptor, the “5-HT2A [%]” value was 98%. For the same molecule, the “D3 [%]” value in assay [4] was 43%.

Broadly, the inhibition is the relative decrease from the control value, in per cent.
